One experiment addresses T1, hA3 AR (Homo sapiens, UniProt P0DMS8).
T1 construct: expressed in transfected cells; host or cells: CHO cells
T1 sequence (P0DMS8 1-318): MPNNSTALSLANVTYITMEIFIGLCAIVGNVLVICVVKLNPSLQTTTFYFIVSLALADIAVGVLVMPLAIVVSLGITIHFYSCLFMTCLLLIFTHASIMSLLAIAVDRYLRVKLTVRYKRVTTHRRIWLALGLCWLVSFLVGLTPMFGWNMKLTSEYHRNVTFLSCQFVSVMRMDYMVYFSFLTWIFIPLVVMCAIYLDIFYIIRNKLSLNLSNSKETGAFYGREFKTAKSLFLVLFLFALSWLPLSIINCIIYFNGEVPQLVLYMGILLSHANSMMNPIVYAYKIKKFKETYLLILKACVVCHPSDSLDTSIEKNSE
Description: Radioligand binding, displacement of [3H]-HEMADO at hA3 AR in CHO cells. The following applies: displacement of specific [3H]-HEMADO binding, mean ± SEM. On the technique in general: In a radioligand displacement assay an active substance lowers the binding of a labelled ligand.

The next experiment has as its target T2, hA2B AR (Homo sapiens, UniProt P29275).
T2 construct: expressed in transfected cells; host or cells: CHO cells
T2 sequence (P29275 1-332): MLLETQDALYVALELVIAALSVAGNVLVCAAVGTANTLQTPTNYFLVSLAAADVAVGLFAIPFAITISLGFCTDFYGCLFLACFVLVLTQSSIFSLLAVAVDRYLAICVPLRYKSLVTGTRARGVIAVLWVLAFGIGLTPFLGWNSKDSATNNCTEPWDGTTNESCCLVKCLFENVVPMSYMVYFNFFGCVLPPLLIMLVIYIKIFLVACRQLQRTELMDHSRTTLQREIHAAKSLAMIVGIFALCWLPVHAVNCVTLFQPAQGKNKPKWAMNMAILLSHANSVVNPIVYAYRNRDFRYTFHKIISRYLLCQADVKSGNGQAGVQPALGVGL
Description: Inhibition of NECA-stimulated adenylyl cyclase activity (cAMP) in CHO cells expressing hA2B AR. The experiment is classed as cell-based. The following applies: mean ± SEM. The protocol: Compounds 1–19 were evaluated for their binding affinity at hA1, hA2A, and hA3 ARs, stably transfected in Chinese hamster ovary (CHO) cells. […].
The binding affinity of the novel compounds was evaluated using radioligand competition experiments in CHO cells stably transfected with hA1 AR, hA2A AR, and hA3 AR subtypes. […]; The potency at hA2B AR, expressed on CHO cells, was determined by inhibition of NECA-stimulated adenylyl cyclase activity. […]
(§1) Binding data and concentration–response curves were fitted by a nonlinear regression with the Prism program (GraphPAD Prism 7 Software, San Diego, CA, USA). Each concentration was tested 3–5 times in duplicate and the Ki or IC50 (the concentration of antagonists that produces 50% inhibition of the agonist effect) values are given as the mean ± standard error (S.E.).

For the next experiment, the target named is T3, human A2A AR (Homo sapiens, UniProt P29274).
T3 construct: expressed in transfected cells; host or cells: CHO cells
In words: Radioligand binding, displacement of [3H]-NECA at hA2A AR in CHO cells.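 Note: competition binding on membranes from CHO cells stably transfected with human A2A receptor, binding curves fitted by nonlinear regression in GraphPad Prism.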

A further experiment concerns the target T4, human A1 AR (Homo sapiens, UniProt P30542).
T4 construct: expressed in transfected cells; host or cells: CHO cells
T4 sequence (P30542 1-326): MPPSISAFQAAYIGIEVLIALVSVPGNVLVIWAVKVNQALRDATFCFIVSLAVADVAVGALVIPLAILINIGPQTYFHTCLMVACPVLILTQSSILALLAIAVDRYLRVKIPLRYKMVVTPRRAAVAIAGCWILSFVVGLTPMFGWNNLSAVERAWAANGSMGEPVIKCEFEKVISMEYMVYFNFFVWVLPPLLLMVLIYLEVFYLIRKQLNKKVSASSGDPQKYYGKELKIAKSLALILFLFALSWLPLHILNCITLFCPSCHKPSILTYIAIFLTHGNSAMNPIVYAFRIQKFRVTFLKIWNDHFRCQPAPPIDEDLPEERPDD
In words: Radioligand binding, displacement of [3H]-CCPA at hA1 AR in CHO cells. The note with it: displacement of specific [3H]-CCPA binding, n = 3–6, mean ± SEM.

Another experiment has as its target T5, hA2A AR (Homo sapiens, UniProt P29274).
T5 construct: expressed in transfected cells; host or cells: CHO cells
Description: Inhibition of NECA-induced increase of cAMP in CHO cells expressing hA2A AR (GloSensor cAMP assay). The format is cell-based. The note with it: inhibition of NECA-stimulated adenylyl cyclase activity, mean ± standard error. On the procedure:
Compound 18 was also tested to evaluate its antagonist behavior at the hA1 AR by assessing its ability to counteract NECA-induced decrease of cAMP accumulation.
The intrinsic activity of understudy compounds was evaluated through the GloSensor cAMP assay, as described previously. Briefly, cells stably expressing the hA1, hA2A, and hA2B ARs and the biosensor were incubated for 2 h at rt in equilibration medium containing 3% v/v GloSensor cAMP reagent stock solution, 10% FBS, and 87% CO2 independent medium. Afterward, cells were dispensed in the wells of a 384-well plate and the reference agonist NECA or the compounds, at different concentrations, were tested. The antagonist profile of compounds was evaluated by assessing their ability to counteract NECA-induced increase (A2A and A2B ARs) or decrease (A1 AR) of cAMP accumulation. Responses were expressed as percentage of the maximal relative luminescence units (RLU).
as §1
For orientation: Changes in cAMP serve as a functional read-out for many G protein-coupled receptors.

The mark [1] stands for this setting: displacement of specific [3H]-NECA binding, CHO cells, mean ± SEM, read-out: hA2A Ki.
Where [2] appears, read: hA2A AR, as listed in Table 3, read-out: pKi A2A (converted).

Each structure is given as a SMILES string. Where two headings read alike, the source gives them in different places.

T3 sequence (P29274 whole entry): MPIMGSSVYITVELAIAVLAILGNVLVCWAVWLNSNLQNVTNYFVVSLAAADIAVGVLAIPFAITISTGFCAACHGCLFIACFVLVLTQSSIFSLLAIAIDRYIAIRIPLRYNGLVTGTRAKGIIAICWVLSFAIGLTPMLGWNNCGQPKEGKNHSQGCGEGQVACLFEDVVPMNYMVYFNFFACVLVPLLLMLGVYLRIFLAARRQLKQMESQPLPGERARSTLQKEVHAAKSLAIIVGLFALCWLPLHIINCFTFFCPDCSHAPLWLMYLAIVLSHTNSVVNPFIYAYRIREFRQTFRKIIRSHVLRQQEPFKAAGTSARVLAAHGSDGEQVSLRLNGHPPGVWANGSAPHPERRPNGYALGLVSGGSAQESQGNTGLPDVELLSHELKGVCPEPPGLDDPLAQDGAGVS
T5 sequence (P29274 whole entry): as above
Description for hA3 AR: (§2) CHO cells, stably expressing hARs, were grown adherently and maintained in Dulbecco’s modified Eagle’s medium (DMEM) with nutrient mixture F12 supplemented with 10% fetal bovine serum (FBS), penicillin (100 µg/mL), streptomycin (100 µg/mL), sodium pyruvate (1 mM), and geneticin (0.1 mg/mL).
(§3) Briefly, cells were homogenized in cold lysis buffer (5 mM Tris HCl, 2 mM EDTA, pH 7.4), centrifuged at low speed spin for 10 min, and subsequently, the supernatant was spun at 37,000 rpm. Membrane pellet was resuspended in the specific buffer and stored at −80 °C.
Description for human A1 AR: as §2, §3
Description for human A2A AR: as §2, §3

For orientation: IC50 means the concentration that inhibits the measured activity by half. The low end stands for greater potency in that assay, the high end for weaker potency in that assay. In the case of `Nc1nc(-c2ccccc2)nc2sc(Cc3ccccc3)nc12` [compound 1, 2-Benzyl-5-phenylthiazolo[5,4-d]pyrimidin-7-amine], the Ki at hA3 AR was 26.6 ± 6 nM; on human A2A AR (setting [1]), 2.9 ± 0.04 nM; at human A2A AR (setting [2]), 2.82 nM; at human A1 AR, 20 ± 4.3 nM. The compound also displayed an IC50 on hA2B AR of over 30000 nM.

For `N#Cc1cccc(-c2nc(N)c3nc(Cc4ccccc4)sc3n2)c1` [compound 2, 3-(7-Amino-2-benzylthiazolo[5,4-d]pyrimidin-5-yl)benzonitrile], the Ki at hA3 AR came out at 76 ± 0.9 nM; at human A2A AR (setting [1]), 4.6 ± 0.9 nM; at human A1 AR, 51.7 ± 11.7 nM. At hA2B AR, this compound showed an IC50 of over 30000 nM.

On to `Nc1nc(-c2cccc(O)c2)nc2sc(Cc3ccccc3)nc12` [compound 3, 3-(7-Amino-2-benzylthiazolo[5,4-d]pyrimidin-5-yl)phenol], for which the Ki on hA3 AR was 104 ± 21.1 nM; at human A2A AR (setting [1]), 7.3 ± 1 nM; at human A1 AR, 15.7 ± 3.4 nM. Besides, the IC50 at hA2B AR is over 30000 nM.

`Nc1nc(-c2ccco2)nc2sc(Cc3ccccc3)nc12` [compound 4, 2-Benzyl-5-(furan-2-yl)thiazolo[5,4-d]pyrimidin-7-amine]: the Ki on hA3 AR was 65.4 ± 12 nM; on human A2A AR (setting [1]), 1.1 ± 0.2 nM; at human A2A AR (setting [2]), 1.1 nM; on human A1 AR, 15.5 ± 3.6 nM. The IC50 on hA2B AR amounted to 794 ± 196 nM.

Take `Cc1ccc(-c2nc(N)c3nc(Cc4ccccc4)sc3n2)o1` [compound 5, 2-Benzyl-5-(5-methylfuran-2-yl)thiazolo[5,4-d]pyrimidin-7-amine]: the Ki on hA3 AR was 18.8 ± 1.9 nM; on human A2A AR (setting [1]), 0.8 ± 0.04 nM; at human A2A AR (setting [2]) it was 0.794 nM; at human A1 AR, 6.8 ± 1.2 nM. Moreover, the IC50 on hA2A AR was found to be 88 ± 21 nM; on hA2B AR it was 1100 ± 228 nM.

`Nc1nc(-c2ccccc2)nc2sc(Cc3ccccc3Cl)nc12` [compound 6, 2-(2-Chlorobenzyl)-5-phenylthiazolo[5,4-d]pyrimidin-7-amine]: the Ki was 143 ± 0.2 nM on hA3 AR, 0.4 ± 0.04 nM at human A2A AR (setting [1]), 0.398 nM at human A2A AR (setting [2]) and 2.8 ± 0.05 nM at human A1 AR. The IC50 at hA2B AR is over 30000 nM.

Consider `N#Cc1cccc(-c2nc(N)c3nc(Cc4ccccc4Cl)sc3n2)c1` [compound 7, 3-(7-Amino-2-(2-chlorobenzyl)thiazolo[5,4-d]pyrimidin-5-yl)benzonitrile], for which the Ki worked out at 295.1 ± 0.6 nM on hA3 AR, 6.3 ± 0.18 nM at human A2A AR (setting [1]) and 72.8 ± 15 nM on human A1 AR. The same compound registered an IC50 against hA2B AR of 6785 ± 62 nM.

Regarding `Nc1nc(-c2ccco2)nc2sc(Cc3ccccc3Cl)nc12` [compound 8, 2-(2-Chlorobenzyl)-5-(furan-2-yl)thiazolo[5,4-d]pyrimidin-7-amine], the Ki at hA3 AR was 4786 ± 5.1 nM; on human A2A AR (setting [1]), 0.2 ± 0.03 nM; on human A2A AR (setting [2]) it was 0.2 nM; on human A1 AR it was 3.8 ± 0.6 nM. For the same compound, the IC50 came out at 39 ± 9 nM at hA2A AR and 1890 ± 175 nM against hA2B AR.

`Cc1ccc(-c2nc(N)c3nc(Cc4ccccc4Cl)sc3n2)o1` [compound 9, 2-(2-Chlorobenzyl)-5-(5-methylfuran-2-yl)thiazolo[5,4-d]pyrimidin-7-amine]: the Ki was 8.5 ± 1.6 nM on hA3 AR, 0.07 ± 0.006 nM at human A2A AR (setting [1]), 0.0708 nM on human A2A AR (setting [2]) and 0.5 ± 0.1 nM at human A1 AR. The values for the IC50 on hA2A AR and on hA2B AR were 7.7 ± 1.3 nM and 8850 ± 1450 nM, respectively.

`COc1ccccc1Cc1nc2c(N)nc(-c3ccccc3)nc2s1` [compound 10, 2-(2-Methoxybenzyl)-5-phenylthiazolo[5,4-d]pyrimidin-7-amine]: the Ki is 37.4 ± 1 nM at hA3 AR, 0.7 ± 0.1 nM on human A2A AR (setting [1]) and 4.5 ± 0.8 nM on human A1 AR. Moreover, the IC50 was 125 ± 33 nM against hA2A AR and over 30000 nM at hA2B AR.

On to `COc1ccccc1Cc1nc2c(N)nc(-c3cccc(C#N)c3)nc2s1` [compound 11, 3-(7-Amino-2-(2-methoxybenzyl)thiazolo[5,4-d]pyrimidin-5-yl)benzonitrile], for which the Ki worked out at 54.2 ± 1.2 nM at hA3 AR, 2.4 ± 0.09 nM on human A2A AR (setting [1]) and 28.4 ± 4 nM at human A1 AR. At hA2B AR, the IC50 amounted to 1540 ± 35 nM.

For `COc1ccccc1Cc1nc2c(N)nc(-c3cccc(O)c3)nc2s1` [compound 12, 3-(7-Amino-2-(2-methoxybenzyl)thiazolo[5,4-d]pyrimidin-5-yl)phenol], the Ki at hA3 AR stood at 79.6 ± 2.3 nM; at human A2A AR (setting [1]), 1.9 ± 0.4 nM; at human A1 AR, 10.2 ± 0.3 nM. On hA2B AR, this compound registered an IC50 of 7420 ± 876 nM.

As for `COc1ccccc1Cc1nc2c(N)nc(-c3ccco3)nc2s1` [compound 13, 5-(Furan-2-yl)-2-(2-methoxybenzyl)thiazolo[5,4-d]pyrimidin-7-amine], the Ki on hA3 AR was determined as 48.6 ± 2.4 nM; on human A2A AR (setting [1]) it was 0.2 ± 0.03 nM; at human A1 AR it was 2.4 ± 0.1 nM. Moreover, the results for the IC50 against hA2A AR and at hA2B AR were 35 ± 8.5 nM and 1540 ± 35 nM, respectively.

As for `COc1ccccc1Cc1nc2c(N)nc(-c3ccc(C)o3)nc2s1` [compound 14, 2-(2-Methoxybenzyl)-5-(5-methylfuran-2-yl)thiazolo[5,4-d]pyrimidin-7-amine], the Ki was found to be 18.2 ± 5 nM at hA3 AR, 2 ± 0.6 nM on human A2A AR (setting [1]) and 11.5 ± 2.8 nM at human A1 AR. This compound registered an IC50 at hA2B AR of 2420 ± 545 nM.

Take `Nc1nc(-c2ccccc2)nc2sc(Cc3ccccc3F)nc12` [compound 15, 2-(2-Fluorobenzyl)-5-phenylthiazolo[5,4-d]pyrimidin-7-amine]: the Ki on hA3 AR is 72.1 ± 5.3 nM; on human A2A AR (setting [1]), 1.8 ± 0.6 nM; at human A2A AR (setting [2]) it was 1.78 nM; on human A1 AR, 1.9 ± 0.05 nM. Besides, on hA2B AR, the IC50 is over 30000 nM.

In the case of `N#Cc1cccc(-c2nc(N)c3nc(Cc4ccccc4F)sc3n2)c1` [compound 16, 3-(7-Amino-2-(2-fluorobenzyl)thiazolo[5,4-d]pyrimidin-5-yl)benzonitrile], the values for the Ki at hA3 AR, at human A2A AR (setting [1]) and on human A1 AR were 95.5 ± 1.5 nM, 1.4 ± 0.3 nM and 21.5 ± 5.1 nM, respectively. At hA2B AR, this compound gave an IC50 of 1510 ± 121 nM.

`Nc1nc(-c2cccc(O)c2)nc2sc(Cc3ccccc3F)nc12` [compound 17, 3-(7-Amino-2-(2-fluorobenzyl)thiazolo[5,4-d]pyrimidin-5-yl)phenol]: the Ki at hA3 AR is 456 ± 15 nM; at human A1 AR it was 0.5 ± 0.1 nM. In addition, the IC50 against hA2B AR turned out to be 3240 ± 136 nM.

Consider `Cc1ccc(-c2nc(N)c3nc(Cc4ccccc4F)sc3n2)o1` [compound 19, 2-(2-Fluorobenzyl)-5-(5-methylfuran-2-yl)thiazolo[5,4-d]pyrimidin-7-amine], for which the Ki at hA3 AR was 50.2 ± 9.2 nM; at human A2A AR (setting [1]), 0.26 ± 0.01 nM; at human A2A AR (setting [2]), 0.257 nM; on human A1 AR, 5.7 ± 0.2 nM. In addition, the IC50 on hA2A AR stood at 51 ± 12 nM; on hA2B AR, 1690 ± 228 nM.
